Reference: patent US6372457B1, “Process and materials for production of glucosamine” (Arkion Life Sciences LLC, priority 1997, dated 2002)

Biological target: T1, glucosamine-6-phosphate synthase (Escherichia coli, UniProt P17169)
T1 construct: allowed mutagenesis of a 2247 base pair region that included the entire glmS gene; made in house; host or cells: E. coli W3110-derived (DE3) production strains with integrated T7-glmS cassette; crude extract
Type: biochemical
Conditions: spectrophotometric assay, FIG. 5
Method: In the spectrophotometric assay, 1 mL reactions containing 50 mM KH2PO4/K2HPO4, 10 nM fructose-6-phosphate, 6 mM L-glutamine, 10 mM KCl, 0.6 mM acetylpyridine adenine dinucleotide (APAD), and 50-60 Units of L-glutamic dehydrogenase (Sigma Type II from bovine liver) were run at room temperature. The activity was followed by monitoring the absorbance at 365 nm after the addition of extract and corrected for the small absorbance increase observed in the absence of extract. The activity was calculated using a molar extinction coefficient for APAD of 9100.
Using the spectrophotometric assay for glucosamine-6-phosphate synthase as described in Example 2, the effects of glucosamine-6-phosphate and glucosamine on glucosamine-6-phosphate synthase were measured. For determination of product inhibition, assays were run in the presence of various concentrations of added glucosamine-6-phosphate.
The strains were grown overnight in LB broth containing 100 μg/mL ampicillin and 1 mM IPTC. […]
Strains 2123-12, 2123-49, 2123-54, 2123-124, 2123-149, and 2123-151, described in the examples above, were grown overnight in LB broth at 37° C. then transferred to fresh LB broth. Cultures were grown to an absorbance at 600 nm of 0.8 to 0.9, then induced for GlcN6P synthase production by the addition of 1 mM IPTG. […]

T1 sequence (P17169 2-609): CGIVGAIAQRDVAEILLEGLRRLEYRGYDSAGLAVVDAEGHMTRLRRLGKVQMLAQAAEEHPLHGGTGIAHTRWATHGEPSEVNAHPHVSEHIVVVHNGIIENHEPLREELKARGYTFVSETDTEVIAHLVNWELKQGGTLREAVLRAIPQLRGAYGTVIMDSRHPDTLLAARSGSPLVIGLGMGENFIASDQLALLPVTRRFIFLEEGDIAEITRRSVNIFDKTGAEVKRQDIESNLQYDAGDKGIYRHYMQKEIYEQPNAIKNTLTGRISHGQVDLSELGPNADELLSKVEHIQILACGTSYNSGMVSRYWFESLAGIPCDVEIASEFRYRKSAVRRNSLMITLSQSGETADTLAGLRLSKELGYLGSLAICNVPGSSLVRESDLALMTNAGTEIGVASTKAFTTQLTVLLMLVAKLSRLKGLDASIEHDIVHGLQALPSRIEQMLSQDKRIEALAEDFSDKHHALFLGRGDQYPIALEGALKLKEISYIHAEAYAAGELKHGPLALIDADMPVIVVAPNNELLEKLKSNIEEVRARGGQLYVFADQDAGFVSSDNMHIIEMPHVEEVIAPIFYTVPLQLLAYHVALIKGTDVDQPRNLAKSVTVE

| Compound | Inhibition of glucosamine-6-phosphate synthase by the added substance |
| --- | --- |
| N[C@H]1C(O)O[C@H](COP(=O)(O)O)[C@@H](O)[C@@H]1O (some centres unmarked) [glucosamine-6-phosphate] | significantly inhibited |
| N[C@H]1C(O)O[C@H](CO)[C@@H](O)[C@@H]1O (some centres unmarked) [glucosamine] | slightly inhibited |
